Data as given in US8431593B2, “Heteroaryl amide derivatives” (H. Lundbeck A/S, priority 2006, dated 2013).

Target: T1, P2X7 receptor (Homo sapiens, UniProt Q99572)
T1 construct: host or cells: SH-SY5Y
T1 sequence (Q99572 1-595): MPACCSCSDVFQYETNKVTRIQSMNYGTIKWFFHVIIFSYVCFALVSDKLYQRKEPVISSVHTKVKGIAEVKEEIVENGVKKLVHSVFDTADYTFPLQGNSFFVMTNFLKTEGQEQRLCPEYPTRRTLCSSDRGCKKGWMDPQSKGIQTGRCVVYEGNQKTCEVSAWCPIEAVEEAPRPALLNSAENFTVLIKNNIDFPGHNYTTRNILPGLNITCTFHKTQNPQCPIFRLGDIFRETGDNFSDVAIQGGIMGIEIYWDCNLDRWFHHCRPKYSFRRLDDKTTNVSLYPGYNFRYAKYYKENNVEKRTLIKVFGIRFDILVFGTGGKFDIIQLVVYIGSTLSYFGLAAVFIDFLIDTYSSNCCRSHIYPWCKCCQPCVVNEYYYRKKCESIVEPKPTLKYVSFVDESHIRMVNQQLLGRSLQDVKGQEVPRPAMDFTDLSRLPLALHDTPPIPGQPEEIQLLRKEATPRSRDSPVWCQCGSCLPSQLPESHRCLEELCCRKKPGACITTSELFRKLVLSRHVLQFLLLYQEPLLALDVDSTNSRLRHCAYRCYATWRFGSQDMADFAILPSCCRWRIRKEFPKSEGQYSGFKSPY
Assay: P2X7 calcium mobilization assay, high throughput, antagonist activity (Example 4A)
Format: cell-based
Conditions: fluorescence response of cells exposed to 80 μM 2′(3′)-O-(4-benzoyl-benzoyl)adenosine 5′-triphosphate; Example 4A; read-out: IC50
Procedure, shortened: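 FLIPR^TETRA calcium read-out: maximum RFU per well minus average no-agonist control, with agonist wells giving the average positive maximum. Cells seeded at 100,000/well one day ahead, dye-loaded 1 h, rinsed, then exposed to compound for 1 h at room temperature.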

NCC(=O)NCCc1cn2c(C(=O)NCC34CC5CC(CC(C5)C3)C4)cccc2n1 [Compound 269, N-(adamantan-1-ylmethyl)-2-[2-(glycylamino)ethyl] imidazo[1,2-a] pyridine-5-carboxamide]
IC50: < 2 µM

CNCC(=O)NCCc1cn2c(C(=O)NCC34CC5CC(CC(C5)C3)C4)cccc2n1 [Compound 270, N-(adamantan-1-ylmethyl)-2-{2-[(N-methylglycyl)amino]ethyl}imidazo[1,2-a] pyridine-5-carboxamide]
IC50: < 2 µM

N#CCCc1cn2c(C(=O)NCC34CC5CC(CC(C5)C3)C4)cccc2n1 [Compound 274, N-(adamantan-1-ylmethyl)-2-(2-cyanoethyl)imidazo[1,2-a]pyridine-5-carboxamide]
IC50: < 2 µM

Cc1nn(Cc2cn3c(C(=O)NCC45CC6CC(CC(C6)C4)C5)cccc3n2)cc1C(=O)O [Compound 275, 1-({5-[(adamantan-1-ylmethyl)carbamoyl]imidazo [1,2-a]pyridin-2-yl}methyl)-3-methyl-1H-pyrazole-4-carboxylic acid]
IC50: < 2 µM

Cc1cc(C(=O)O)nn1Cc1cn2c(C(=O)NCC34CC5CC(CC(C5)C3)C4)cccc2n1 [Compound 276, 1-({5-[(adamantan-1-ylmethyl)carbamoyl]imidazo[1,2-a]pyridin-2-yl}methyl)-5-methyl-1H-pyrazole-3-carboxylic acid]
IC50: < 2 µM

C[C@H](N)C(=O)N[C@@H]1CCN(Cc2cn3c(C(=O)NCC45CC6CC(CC(C6)C4)C5)cccc3n2)C1 [Compound 277, N-(adamantan-1-ylmethyl)-2-{[(3R)-3-(L-alanylamino)pyrrolidin-1-yl]methyl}imidazo[1,2-a]pyridine-5-carboxamide]
IC50: < 2 µM

C=Cc1cn2c(C(=O)NCC34CC5CC(CC(C5)C3)C4)cccc2n1 [Compound 278, N-(adamantan-1-ylmethyl)-2-vinylimidazo[1,2-a]pyridine-5-carboxamide]
IC50: < 2 µM

Cc1c(C(=O)O)ncn1Cc1cn2c(C(=O)NCC34CC5CC(CC(C5)C3)C4)cccc2n1 [Compound 279, 1-({5-[(adamantan-1-ylmethyl)carbamoyl]imidazo[1,2-a]pyridin-2-yl}methyl)-5-methyl-1H-imidazole-4-carboxylic acid]
IC50: < 2 µM

CCOC(=O)c1cn2c(C(=O)NC(C)C34CC5CC(CC(C5)C3)C4)cccc2n1 (centres unmarked) [Compound 280, ethyl 5-[(1-adamantan-1-ylethyl)carbamoyl] imidazo[1,2-a] pyridine-2-carboxylate]
IC50: < 2 µM

CCOC(=O)Cc1cn2c(C(=O)NC(C)C34CC5CC(CC(C5)C3)C4)cccc2n1 (centres unmarked) [Compound 281, ethyl {5-[(1-adamantan-1-ylethyl)carbamoyl]imidazo[1,2-a]pyridin-2-yl}acetate]
IC50: < 2 µM

O=C(NCC12CC3CC(CC(C3)C1)C2)c1cccc2nc(CN3CC[C@H](F)C3)cn12 [Compound 282, N-(adamantan-1-ylmethyl)-2-[(3-fluoropyrrolidin-1-yl)methyl]imidazo[1,2-a]pyridine-5-carboxamide]
IC50: < 2 µM

NCCS(=O)(=O)Cc1cn2c(C(=O)NCC34CC5CC(CC(C5)C3)C4)cccc2n1 [Compound 283, N-(adamantan-1-ylmethyl)-2-{[(2-aminoethyl)sulfonyl]methyl}imidazo [1,2-a]pyridine-5-carboxamide]
IC50: < 2 µM

Cc1cc(-c2cn3c(C(=O)NCC45CC6CC(CC(C6)C4)C5)cccc3n2)n[nH]1 [Compound 284, N-(adamantan-1-ylmethyl)-2-(5-methyl-1H-pyrazol-3-yl)imidazo[1,2-a]pyridine-5-carboxamide]
IC50: < 2 µM

O=C(O)COCc1cn2c(C(=O)NCC34CC5CC(CC(C5)C3)C4)cccc2n1 [Compound 285, ({5-[{adamantan-1-ylmethyl)carbamoyl]imidazo[1,2-a]pyridin-2-yl}methoxy)acetic acid]
IC50: < 2 µM

O=C(NCC12CC3CC(CC(C3)C1)C2)c1cccc2nc(CN3CCCC3)cn12 [Compound 286, N-(adamantan-1-ylmethyl)-2-(pyrrolidin-1-ylmethyl)imidazo[1,2-a]pyridine-5-carboxamide]
IC50: < 2 µM

O=C(O)CSCc1cn2c(C(=O)NCC34CC5CC(CC(C5)C3)C4)cccc2n1 [Compound 287, [({5-[(adamantan-1-ylmethyl)carbamoyl]imidazo[1,2-a]pyridin-2-yl}methyl)thio]acetic acid]
IC50: < 2 µM

O=C(NCC12CC3CC(CC(C3)C1)C2)c1cccc2nc(CN3CCCC(F)(F)C3)cn12 [Compound 288, N-(adamantan-1-ylmethyl)-2-[(3,3-difluoropiperidin-1-yl)methyl]imidazo[1,2-a]pyridine-5-carboxamide]
IC50: < 2 µM

O=C(O)CS(=O)(=O)Cc1cn2c(C(=O)NCC34CC5CC(CC(C5)C3)C4)cccc2n1 [Compound 289, [({5-[(adamantan-1-ylmethyl)carbamoyl]imidazo[1,2-a]pyridin-2-yl}methyl)sulfonyl] acetic acid]
IC50: < 2 µM

O=C(NCC12CC3CC(CC(C3)C1)C2)c1cccc2nc(CN3CCC(F)(F)CC3)cn12 [Compound 290, N-(adamantan-1-ylmethyl)-2-[(4,4-difluoropiperidin-1-yl)methyl]imidazo[1,2-a]pyridine-5-carboxamide]
IC50: < 2 µM

O=C(NCC12CC3CC(CC(C3)C1)C2)c1cccc2nc(CN3CCOCC3)cn12 [Compound 291, N-(adamantan-1-ylmethyl)-2-(morpholin-4-ylmethyl)imidazo[1,2-a]pyridine-5-carboxamide]
IC50: < 2 µM

O=C(NCC12CC3CC(CC(C3)C1)C2)c1cccc2nc(CCc3nnn[nH]3)cn12 [Compound 292, N-(adamantan-1-ylmethyl)-2-(2-(1H-tetrazol-5-yl)ethyl]imidazo[1,2-a]pyridine-5-carboxamide]
IC50: < 2 µM

O=C(NCC12CC3CC(CC(C3)C1)C2)c1cccc2nc(CSc3nnc[nH]3)cn12 [Compound 293, N-(adamantan-1-ylmethyl)-2-[(4H-1,2,4-triazol-3-ylthio)methyl]imidazo [1,2-a]pyridine-5-carboxamide]
IC50: < 2 µM

O=C(NCC12CC3CC(CC(C3)C1)C2)c1cccc2nc(CN3CC[C@@H](F)C3)cn12 [Compound 294, N-(adamantan-1-ylmethyl)-2-[(3-fluoropyrrolidin-1-yl)methyl]imidazo[1,2-a]pyridine-5-carboxamide]
IC50: < 2 µM

N[C@@H]1CCCN(C(=O)Cc2cn3c(C(=O)NCC45CC6CC(CC(C6)C4)C5)cccc3n2)C1 [Compound 295, N-(adamantan-1-ylmethyl)-2-{2-[(3R)-3-aminopiperidin-1-yl]-2-oxoethyl}imidazo[1,2-a]pyridine-5-carboxamide]
IC50: < 2 µM

O=C(O)CCc1cn2c(C(=O)NCC34CC5CC(CC(C5)C3)C4)cccc2n1 [Compound 296, 3-{5-[(adamantan-1-ylmethyl)carbamoyl]imidazo[1,2-a]pyridin-2-yl}propanoic acid]
IC50: < 2 µM

NCCc1cn2c(C(=O)NCC34CC5CC(CC(C5)C3)C4)cccc2n1 [Compound 297, N-(adamantan-1-ylmethyl)-2-(2-aminoethyl)imidazo [1,2-a]pyridine-5-carboxamide]
IC50: < 2 µM

N#Cc1ccc(-c2cn3c(C(=O)NCC45CC6CC(CC(C6)C4)C5)cccc3n2)cc1 [Compound 298, N-(adamantan-1-ylmethyl)-2-(4-cyanophenyl)imidazo [1,2-a]pyridine-5-carboxamide]
IC50: < 2 µM

N[C@@H]1CCN(Cc2cn3c(NC(=O)CC45CC6CC(CC(C6)C4)C5)cccc3n2)C1 [Compound 299, 2-adamantan-1-yl-N-(2-{[(3R)-3-aminopyrrolidin-1-yl]methyl}imidazo[1,2-a]pyridin-5-yl)acetamide]
IC50: < 2 µM

CC1(C)[C@H]2CC[C@@H](CNC(=O)c3cccc4nc(C(=O)N5CCCNCC5)cn34)[C@@H]1C2 [Compound 304, 2-(1,4-diazepan-1-ylcarbonyl)-N-{[(1S,2R,5S)-6,6-dimethylbicyclo[3.1.1]hept-2-yl]methyl}imidazo[1,2-a]pyridine-5-carboxamide]
IC50: < 2 µM

C[C@@H]1CNCCN1C(=O)c1cn2c(C(=O)NC[C@@H]3CC[C@H]4C[C@@H]3C4(C)C)cccc2n1 [Compound 305, N-{[(1S,2R,5S)-6,6-dimethylbicyclo[3.1.1]hept-2-yl]methyl}-2-{[(2R)-2-methylpiperazin-1-yl]carbonyl}imidazo[1,2-a]pyridine-5-carboxamide]
IC50: < 2 µM

CC(C)[C@H]1CN(C(=O)c2cn3c(C(=O)NC[C@@H]4CC[C@H]5C[C@@H]4C5(C)C)cccc3n2)CCN1 [Compound 308]
IC50: < 2 µM

CN(C(=O)c1cn2c(C(=O)NC[C@@H]3CC[C@H]4C[C@@H]3C4(C)C)cccc2n1)C1CCCNC1 (stereo partly drawn) [Compound 311, 5-N-{[(1S,2R,5S)-6,6-dimethylbicyclo[3.1.1]hept-2-yl]methyl}-2-N-methyl-2-N-piperidin-3-ylimidazo[1,2-a]pyridine-2,5-dicarboxamide]
IC50: < 2 µM
